# Counter-ions that a name gives are not always drawn.
# Experiments:
# dopamine D2 receptors = conditions: cited from earlier work
# psychosis = conditions: in vivo; cited from earlier work
# [1] = system: acetic acid-induced writhings in mice; experiment: Antagonism of Acetic Acid-Induced Writhings In Mice; format: in vivo, mouse (NMRI); conditions: Mus musculus, sc; s.c. 30 min before acetic acid 0.5 per cent i.p.; 50 per cent protection
# Description: Antagonism of Acetic Acid-Induced Writhings In Mice
# In mice i.p. injection of acetic acid induces a writhing syndrome which is antagonized by analgesics (Siegmund et al., 1957; Eckhardt et al., 1957).
# Acetic acid 0.5 per cent is injected i.p. (0.15 ml/10 g body weight) to 6 mice (NMRI, either sex weighing 20-25 g) pretreated with physiological saline (controls) and to 6 mice pretreated with test substance. In the controls acetic acid induces a syndrome characterized by contraction of abdomen, turning of trunk and extension of hind limbs. Saline and test substances are administered s.c. 30 min. before acetic acid. The number of writhings is counted 5-15 min. after injection of acetic acid.
# The activity is expressed as per cent protection: [formula]
# The effect of active substances is evaluated by a dose response curve, log dose on the abscissa, and per cent protection on the ordinate. The potency is expressed as the dose (ED50 in mg/kg giving 50 per cent protection against writhings.
# This test is used as a screening test for analgesics. Additional results from other screening tests are required to exclude active anti-writhing substances without analgesic effect.
# 5-HT2 receptor = conditions: cited from earlier work
# [2] = system: 5HT2, alpha1-adrenergic and dopaminergic receptors; conditions: cited from earlier work
# 5-HT1A receptors = conditions: cited from earlier work
# [3] = system: ischemic neuronal damage in the gerbil; conditions: cited from earlier work
# anxiety, depression = conditions: clinical; cited from earlier work
# 5HT1A receptor = molecular target: T1, 5HT1A receptor (Rattus norvegicus, UniProt P19327); experiment: In-Vitro inhibition of 5HT1A receptor binding (3H-8-OH-DPAT); parameters: species or system rat (male Wistar); conditions: 3H-8-OH-DPAT 1 nM, rat frontal cortex and hippocampus, 37° C., 10 min
# T1 sequence (P19327 1-422): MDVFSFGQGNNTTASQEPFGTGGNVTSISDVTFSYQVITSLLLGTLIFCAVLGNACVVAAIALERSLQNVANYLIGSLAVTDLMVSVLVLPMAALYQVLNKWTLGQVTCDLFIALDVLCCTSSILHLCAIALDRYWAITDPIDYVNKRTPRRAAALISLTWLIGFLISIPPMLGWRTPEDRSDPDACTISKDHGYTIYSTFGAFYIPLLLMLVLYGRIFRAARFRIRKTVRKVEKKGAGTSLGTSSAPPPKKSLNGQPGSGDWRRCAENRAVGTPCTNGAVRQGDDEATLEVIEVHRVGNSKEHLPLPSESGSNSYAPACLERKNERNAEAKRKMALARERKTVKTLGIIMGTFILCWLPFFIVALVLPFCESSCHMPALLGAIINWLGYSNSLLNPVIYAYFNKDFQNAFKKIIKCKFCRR
# Description: In-Vitro inhibition of 5HT1A receptor binding
# Radioactive-labelled ligand ^3 H-80H-DPAT is incubated with isolated cell-membrane fragments at 37° C. for a given period of time. Following completed incubation, the incubate is filtered through GF/F filters which are rinsed after filtration to remove unspecifically adhered radioactivity. As opposed to low-molecular compounds, membrane fragments are not rinsed through the filters, the radioactivity bound to the filters indicates the amount of ligand bound specifically as well as nonspecifically to the membranes.
# Male Wistar rats, 150-200 g are decapitated, and frontal cortex (approx. 200 mg) and hippocampus (approx. 70 mg) homogenized in 2×10 ml ice-cold DPAT buffer for 20 sec. applying polytron kinematica setting 6. Centrifuged at 20,000 rpm for 10 min. at 4° C. The pellet is transferred to 2×10 ml ice-cold DPAT buffer, homogenized for 20 sec. and preincubated for 10 min. at 37° C. Centrifuged at 20,000 rpm for 10 min. at 4° C. Final pellet added to 125×vol. of same buffer with 10 μM paragylin added (ex. 270 mg tissue in 33.75 ml DPAT buffer containing paragylin). Prepared fresh every day. Use within 30 minutes.
# 1,250 μl tissue 25 μl ^3 H-80H-DPAT (1 nM) 25 μl test substance/H2 O/blind serotonin (10 μM)
# Incubation at 37° C. for 10 min.--at 10 sec. intervals. To the tubes is added 10 ml ice-cold 0.9% NaCl. Filtration through GF/F filters (use gloves). This procedure is repeated. Filters are placed in counting vials and 4 ml optiflow added (prepare in fume cupboard, use gloves). Counted at window 0-19 of the beta- counter (Pachard). Note that receptor box and lid are rinsed thoroughly in H2 O after use to avoid contamination. Further the analytical site is cleaned carefully every day.
# Dissolved in H2 O, EtOH, MeOH or DMSO and further diluted in H2 O. The DPAT binding will stand concentrations of up to approx. 5% of these solvents without affecting the binding. Most stock solutions are stable at 4° C. Attention should, however, be paid to any precipitation, change in colour etc. Test-substance dilutions are always prepared fresh every day. When weighing out test substances, it is attempted to weigh out approx. 1 mg of substance. Less than 0.8 mg must never be weighed out and only infrequently more than 2 mg (for economy reasons) dependent, however on conc./assay.
# 5HT2 receptor = molecular target: T2, 5HT2 receptor (Rattus norvegicus, UniProt P14842); experiment: In Vitro Inhibition of 5HT2-Receptor Binding (3H-Ketanserine); parameters: species or system rat (male Wistar); conditions: 3H-Ketanserine 0.4 nM, rat frontal cortex, 37° C., 15 min
# T2 construct: incubated with isolated cell-membrane fragments; from tissue; host or cells: frontal cortex of male Wistar rats (membranes)
# Description: In Vitro Inhibition of 5HT2 -Receptor Binding
# Radioactive-labelled ligand ^3 H-Ketanserine is incubated with isolated cell-membrane fragments at 37° C. for a given period of time. Following completed incubation, the incubate is filtered through GF/B filters which are rinsed after filtration to remove unspecifically adhered radioactivity. As opposed to low-molecular compounds, membrane fragments are not rinsed through the filters, the radioactivity bound to the filters indicates the amount of ligand bound specifically as well as non-specifically to the membranes.
# The preparation is made in ice bath. Polytron kinematica is rinsed with milli-Q-H2 O before and after use. Male Wistar rats, 150-200 g are decapitated. Frontal cortex is removed quickly and weighed (approx. 200 mg). Frontal cortex is added to centrifuging vial containing 10 ml ice-cold D2 buffer. Homogenization applying polytron kinematica (homogenizer) setting 6 for 20 sec. The homogenizer is rinsed with 10 ml D2 buffer in another centrifuging vial. The 10 ml rinsing buffer is added to the tissue vial. Centrifuged at 18,000 rpm for 10 min. at 4° C. Final pellet is transferred to 125×vol. of same buffer. (Ex. 200 mg in 25 ml D2 buffer). Can be stored for approx. 30 min. at 0° C.
# 25 μl ^3 H-Ketanserine (0.4 nM)
# 25 μl test substance/H2 O/blind cyproheptadine (2 μM)
# Incubation for 15 min. at 37° C.
# 10 ml ice-cold 0.9% NaCl is added to the tubes. Filtration is performed through GF/B filters (use gloves). This procedure is repeated. Filters are placed in counting vials, and 4 ml opti- flour is added (prepare in fume cupboard, use gloves). Counting at window 0-19 of the beta-counter (Pachard). Note that receptor box and lid are rinsed thoroughly in H2 O after use to avoid contamination. Further the analytical site is cleaned carefully every day.
# Dissolved in H2 O, EtOH, MeOH or DMSO and further diluted in H2 O. The 5HT2 binding will stand concentrations of up to approx. 5% of these solvents without affecting the binding. Most stock solutions are stable at 4° C. Attention should, however, be paid to any precipitation, change in colour etc. Test-substance dilutions are always made fresh every day. When weighing out test substance, it is attempted to weigh out approx. 1 mg of substance. Less than 0.8 mg must never be weighed out and only infrequently more than 2 mg (for economy reasons) dependent, however, on conc./assay.
# Alpha1 receptor = experiment: In-Vitro Inhibition of Alpha1-Receptor Binding (3H-Prazosin); parameters: species or system rat (male Wistar); conditions: 3H-Prazosin 0.5 nM, rat cortex, 25° C., 30 min; read-out: Receptor binding IC50 α1
# Description: In-Vitro Inhibition of Alpha1 -Receptor Binding, Radioactive-labelled ligand ^3 H-Prazosin is incubated with isolated cell-membrane fragments at 25° C. for a given period of time. Following completed incubation, the incubate is filtered through GF/B filters, which are rinsed following filtration to remove unspecifically adhered radioactivity. As opposed to low- molecular compounds, membrane fragments are not rinsed through the filters, the radioactivity bound to the filters indicates the amount of ligand bound specifically as well as nonspecifically to the membranes. The procedure is performed in ice bath. Polytron kinematica is rinsed with milli-Q-H2 O before and after use. Male Wistar rats, 150-200 g are decapitated, cortex is removed quickly and weighed (approx. 500 mg). Cortex is transferred to a centrifuging vial containing 10 ml ice-cold D2 buffer. Homogenization applying polytron kinematica (homogenizer) setting 6 for 20 sec. The homogenizer is rinsed with 10 ml D2 buffer in another centrifuging vial. The 10 ml rinsing buffer is added to the tissue vial. Centrifugation at 18,000 rpm for 12 min. at 4° C. This is repeated once. Final pellet is added to 400×vol. of same buffer. (Ex. 500 mg cortex in 200 ml D2 buffer). Can be stored for 30 min. at 0° C. 2,000 μl tissue 25 μl ^3 H-Prazosin (0.5 nM) 25 μl test substance/H2 O/blind Phentolamine (10 μM) Incubation for 30 min. at 25° C. 10 ml of ice-cold 0.9% NaCl is added to the tubes and filtered through GF/B filters (use gloves). This procedure is repeated. Filters are placed in counting vials and 4 ml opti-flour is added (perform in fume cupboard, use gloves). Counting is performed at window 0-19 of the betacounter (Pachard). […] Further, the analytical site is cleaned carefully every day after use. Dissolved in H2 O, EtOH, MeOH or DMSO and further diluted in H2 O. […] Most stock solutions are stable at 4° C. Attention should, however, be paid to any precipitation, change in colour etc. Test-substance dilutions are always prepared fresh every day. When weighing out test substances, it is attempted to weigh out approx. 1 mg of substance. Less than 0.8 mg must never be weighed out and only infrequently more than 2 mg (for economy reasons) dependent, however, on conc./ass.
# T2 sequence (P14842 whole entry, the tested form may be a part): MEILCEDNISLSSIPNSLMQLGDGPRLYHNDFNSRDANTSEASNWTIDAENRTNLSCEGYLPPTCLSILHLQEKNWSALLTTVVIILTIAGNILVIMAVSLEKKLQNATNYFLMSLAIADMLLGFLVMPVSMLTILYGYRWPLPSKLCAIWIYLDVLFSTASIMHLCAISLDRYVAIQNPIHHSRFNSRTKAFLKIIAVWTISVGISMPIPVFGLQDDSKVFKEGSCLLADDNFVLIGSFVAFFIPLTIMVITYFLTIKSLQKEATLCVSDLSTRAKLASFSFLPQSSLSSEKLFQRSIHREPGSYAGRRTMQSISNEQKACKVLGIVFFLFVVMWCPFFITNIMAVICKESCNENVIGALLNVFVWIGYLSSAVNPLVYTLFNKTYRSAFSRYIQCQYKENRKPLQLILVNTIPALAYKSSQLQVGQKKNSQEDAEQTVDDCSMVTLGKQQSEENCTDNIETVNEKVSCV
smiles,measurement,setting,value
Cc1nc2n(c(=O)c1CCN1CCC(c3noc4cc(F)ccc34)CC1)CCCC2 [Risperidone],antagonism of dopamine D2 receptors (in words),dopamine D2 receptors,potent antagonist
same,antipsychotic properties (in words),psychosis,antipsychotic properties
"CCOC(=O)C1(c2ccccc2)CCN(C)CC1 [Pethidine, reference compound]",ED50,[1],9.3 mg/kg
O=C(c1ccc(F)cc1)C1CCN(CCn2c(=O)[nH]c3ccccc3c2=O)CC1 [ketanserin],affinity for / antagonism of 5-HT2 receptor (in words),5-HT2 receptor,high affinity
CN1CCN(C2=Nc3cc(Cl)ccc3Nc3ccccc32)CC1 [clozapine],antipsychotic properties (in words),psychosis,unprecedented antipsychotic potential
same,"binding to 5HT2, alpha1-adrenergic and dopaminergic receptors (in words)",[2],nonselectively binds
"CCCN(CCC)C1CCc2cccc(O)c2C1 (centres unmarked) [Example 8-OH-DPAT, 8-hydroxy-2-(di-n-propylamino)tetralin]",binding affinity / selectivity for 5-HT1A receptors (in words),5-HT1A receptors,high affinity
same,protective effect on ischemic neuronal damage in the gerbil (in words),[3],exhibit a protective effect on ischemic neuronal damage
Cc1nc2sccn2c(=O)c1CCN1CCC(=C(c2ccc(F)cc2)c2ccc(F)cc2)CC1 [Ritanserin],anxiolytic / antidepressant efficacy (in words),"anxiety, depression",demonstrate clinical efficacy as anxiolytic-antidepressant agents
"Cl.O=C(Nc1ccc2c(c1)OCO2)OCCCN1CCN(c2cccc(Cl)c2)CC1 [Example 15, 4-(3-Chlorophenyl)-1-[3-(3,4-methylenedioxyphenylcarbamoyloxy)propyl]piperazine, hydrochloride]",ED50,[1],5.6 mg/kg
O=C1CC2(CCCC2)CC(=O)N1CCCCN1CCN(c2ncccn2)CC1 [buspirone],binding affinity / selectivity for 5-HT1A receptors (in words),5-HT1A receptors,selectivity for 5-HT1A receptors
same,anxiolytic / antidepressant efficacy (in words),"anxiety, depression",effective anxiolytic agent
CCN(CC)CCOC(=O)C(Cc1cccc2ccccc12)CC1CCCO1 (centres unmarked) [naftidrofuryl],protective effect on ischemic neuronal damage in the gerbil (in words),[3],exhibit a protective effect on ischemic neuronal damage
"COc1cc(NC(=S)OCCCN2CCN(c3ccccc3Cl)CC2)cc(OC)c1OC [Example 24, 4-(2-Chlorophenyl)-1-(3-[3,4,5-trimethoxyphenyl(thiocarbamoyl)oxy]propyl)piperazine, hydrochloride]",IC50,5HT1A receptor,61 nM
same,IC50,5HT2 receptor,49 nM
same,IC50,Alpha1 receptor,7.5 nM
"Cl.O=C(Nc1ccc2c(c1)OCCO2)OCCCN1CCN(c2cccc(Cl)c2)CC1 [Example 18, 4-(3-Chlorophenyl)-1-[3-(3,4-ethylenedioxyphenylcarbamoyloxy)propyl]piperazine, hydrochloride]",ED50,[1],7 mg/kg
